Assay results reported in the NIST ThermoML archive (doi:10.1021/acs.jced.7b00694).
Numbers after ± are expanded uncertainties.

Assay: xn = mol fraction of the nth substance listed
Conditions: Gas, Buoyancy - hydrostatic balance with magnetic suspension - one sinker

[HH] [hydrogen] + N#N
Conditions	mass density [kg/m3]
250.04 K, 11001 kPa, x2 = 0.9	137.2 ± 0.074
250.04 K, 11002 kPa, x2 = 0.5001	76.353 ± 0.047
250.04 K, 12001 kPa, x2 = 0.5001	82.831 ± 0.048
250.04 K, 12002 kPa, x2 = 0.9	149.273 ± 0.074
250.04 K, 13003 kPa, x2 = 0.5001	89.231 ± 0.047
250.04 K, 13005 kPa, x2 = 0.9	161.179 ± 0.075
250.04 K, 14001 kPa, x2 = 0.5001	95.51 ± 0.048
250.04 K, 15005 kPa, x2 = 0.5001	101.724 ± 0.049
250.04 K, 15008 kPa, x2 = 0.9	184.307 ± 0.075
250.04 K, 16003 kPa, x2 = 0.5001	107.801 ± 0.048
250.04 K, 17004 kPa, x2 = 0.5001	113.79 ± 0.049
250.04 K, 17014 kPa, x2 = 0.9	206.478 ± 0.076
250.04 K, 18007 kPa, x2 = 0.5001	119.684 ± 0.05
250.04 K, 18011 kPa, x2 = 0.9	217.113 ± 0.076
250.04 K, 19005 kPa, x2 = 0.5001	125.441 ± 0.05
250.04 K, 19653 kPa, x2 = 0.9	234.021 ± 0.079
250.04 K, 19934 kPa, x2 = 0.5001	130.7 ± 0.05
250.05 K, 14008 kPa, x2 = 0.9	172.872 ± 0.075
250.05 K, 16004 kPa, x2 = 0.9	195.446 ± 0.075
250.05 K, 19014 kPa, x2 = 0.9	227.523 ± 0.076
260.02 K, 999 kPa, x2 = 0.95	12.396 ± 0.067
260.02 K, 1998 kPa, x2 = 0.95	24.915 ± 0.068
260.02 K, 2987 kPa, x2 = 0.95	37.39 ± 0.069
260.02 K, 3998 kPa, x2 = 0.95	50.206 ± 0.07
260.02 K, 4998 kPa, x2 = 0.95	62.921 ± 0.071
260.02 K, 5998 kPa, x2 = 0.95	75.652 ± 0.072
260.02 K, 6997 kPa, x2 = 0.95	88.348 ± 0.072
260.02 K, 8004 kPa, x2 = 0.95	101.083 ± 0.073
260.02 K, 8999 kPa, x2 = 0.95	113.598 ± 0.074
260.02 K, 10003 kPa, x2 = 0.95	126.121 ± 0.074
260.02 K, 11004 kPa, x2 = 0.95	138.476 ± 0.075
260.02 K, 12004 kPa, x2 = 0.95	150.65 ± 0.075
260.02 K, 13007 kPa, x2 = 0.95	162.68 ± 0.076
260.02 K, 13989 kPa, x2 = 0.95	174.256 ± 0.076
260.02 K, 15009 kPa, x2 = 0.95	186.058 ± 0.076
260.02 K, 16012 kPa, x2 = 0.95	197.415 ± 0.076
260.02 K, 17003 kPa, x2 = 0.95	208.387 ± 0.076
260.02 K, 18018 kPa, x2 = 0.95	219.361 ± 0.076
260.02 K, 19020 kPa, x2 = 0.95	229.93 ± 0.077
260.02 K, 19954 kPa, x2 = 0.95	239.529 ± 0.08
260.03 K, 998 kPa, x2 = 0.9	11.773 ± 0.064
260.03 K, 2000 kPa, x2 = 0.9	23.676 ± 0.065
260.04 K, 2987 kPa, x2 = 0.9	35.462 ± 0.066
260.04 K, 3998 kPa, x2 = 0.9	47.566 ± 0.067
260.04 K, 4998 kPa, x2 = 0.9	59.561 ± 0.068
260.04 K, 5998 kPa, x2 = 0.9	71.547 ± 0.068
260.04 K, 6999 kPa, x2 = 0.9	83.502 ± 0.069
260.04 K, 7999 kPa, x2 = 0.9	95.394 ± 0.069
260.04 K, 9000 kPa, x2 = 0.9	107.209 ± 0.07
260.04 K, 10001 kPa, x2 = 0.9	118.929 ± 0.071
